In ChEMBL document CHEMBL4421728, “Bach1 Inhibitors in Combination with Nrf2 Activators and Pharmaceutical Compositions Thereof” (2017):

How the values were obtained:
[1] = target: T1, Nuclear factor erythroid 2-related factor 2 (Homo sapiens) (UniProt Q16236); experiment: Activation of Nrf2 in normal human lung fibroblasts assessed as induction of HMOX protein expression at 0.0024 uM incubated for 16 to 18 hrs by immunostaining relative to control
T1 sequence (whole entry): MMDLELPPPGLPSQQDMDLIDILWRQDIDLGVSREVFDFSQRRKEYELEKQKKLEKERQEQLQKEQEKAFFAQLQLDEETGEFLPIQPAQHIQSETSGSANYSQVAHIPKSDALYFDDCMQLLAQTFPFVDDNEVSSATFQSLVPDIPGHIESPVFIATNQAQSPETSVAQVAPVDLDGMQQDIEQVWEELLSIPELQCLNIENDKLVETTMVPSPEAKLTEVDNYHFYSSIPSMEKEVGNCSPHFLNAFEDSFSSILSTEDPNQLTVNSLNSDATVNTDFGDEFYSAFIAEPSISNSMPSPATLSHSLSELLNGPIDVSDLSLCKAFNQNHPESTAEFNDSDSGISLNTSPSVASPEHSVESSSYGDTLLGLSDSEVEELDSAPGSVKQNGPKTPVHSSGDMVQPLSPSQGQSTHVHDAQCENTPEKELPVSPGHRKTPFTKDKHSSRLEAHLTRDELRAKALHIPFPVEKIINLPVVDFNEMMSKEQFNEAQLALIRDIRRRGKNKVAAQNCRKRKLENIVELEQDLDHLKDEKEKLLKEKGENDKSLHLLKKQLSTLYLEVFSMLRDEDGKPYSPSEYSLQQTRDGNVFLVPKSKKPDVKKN

[2] = target: T1, Nuclear factor erythroid 2-related factor 2 (Homo sapiens); experiment: Activation of Nrf2 in normal human lung fibroblasts assessed as induction of HMOX protein expression at 0.156 uM incubated for 16 to 18 hrs by immunostaining relative to control
[3] = target: T1, Nuclear factor erythroid 2-related factor 2 (Homo sapiens); experiment: Activation of Nrf2 in normal human lung fibroblasts assessed as induction of HMOX protein expression at 0.0097 uM incubated for 16 to 18 hrs by immunostaining relative to control
[4] = target: T1, Nuclear factor erythroid 2-related factor 2 (Homo sapiens); experiment: Activation of Nrf2 in normal human lung fibroblasts assessed as induction of HMOX protein expression at 0.078 uM incubated for 16 to 18 hrs by immunostaining relative to control
[5] = target: T1, Nuclear factor erythroid 2-related factor 2 (Homo sapiens); experiment: Activation of Nrf2 in normal human lung fibroblasts assessed as induction of HMOX protein expression at 0.019 uM incubated for 16 to 18 hrs by immunostaining relative to control
[6] = target: T1, Nuclear factor erythroid 2-related factor 2 (Homo sapiens); experiment: Activation of Nrf2 in normal human lung fibroblasts assessed as induction of HMOX protein expression at 0.039 uM incubated for 16 to 18 hrs by immunostaining relative to control
[7] = target: T1, Nuclear factor erythroid 2-related factor 2 (Homo sapiens); experiment: Activation of Nrf2 in normal human lung fibroblasts assessed as induction of HMOX protein expression at 0.0048 uM incubated for 16 to 18 hrs by immunostaining relative to control
[8] = target: T1, Nuclear factor erythroid 2-related factor 2 (Homo sapiens); experiment: Activation of Nrf2 in normal human lung fibroblasts assessed as induction of HMOX protein expression at 0.312 uM incubated for 16 to 18 hrs by immunostaining relative to control
[9] = target: T1, Nuclear factor erythroid 2-related factor 2 (Homo sapiens); experiment: Activation of Nrf2 in normal human lung fibroblasts assessed as induction of HMOX protein expression at 10 uM incubated for 16 to 18 hrs by immunostaining relative to control
[10] = target: T1, Nuclear factor erythroid 2-related factor 2 (Homo sapiens); experiment: Activation of Nrf2 in normal human lung fibroblasts assessed as induction of HMOX protein expression at 0.03 uM incubated for 16 to 18 hrs by immunostaining relative to control
[11] = target: T1, Nuclear factor erythroid 2-related factor 2 (Homo sapiens); experiment: Activation of Nrf2 in normal human lung fibroblasts assessed as induction of HMOX protein expression at 3 uM incubated for 16 to 18 hrs by immunostaining relative to control
[12] = target: T1, Nuclear factor erythroid 2-related factor 2 (Homo sapiens); experiment: Activation of Nrf2 in normal human lung fibroblasts assessed as induction of HMOX protein expression at 1 uM incubated for 16 to 18 hrs by immunostaining relative to control
[13] = target: T1, Nuclear factor erythroid 2-related factor 2 (Homo sapiens); experiment: Activation of Nrf2 in normal human lung fibroblasts assessed as induction of HMOX protein expression at 0.1 uM incubated for 16 to 18 hrs by immunostaining relative to control
[14] = target: T1, Nuclear factor erythroid 2-related factor 2 (Homo sapiens); experiment: Activation of Nrf2 in normal human lung fibroblasts assessed as induction of HMOX protein expression by measuring HMOX positive cells level at 30 uM incubated for 16 to 18 hrs by immunostaining relative to control DMSO
[15] = target: T1, Nuclear factor erythroid 2-related factor 2 (Homo sapiens); experiment: Activation of Nrf2 in normal human lung fibroblasts assessed as induction of HMOX protein expression by measuring HMOX positive cells level at 0.3 uM incubated for 16 to 18 hrs by immunostaining relative to control DMSO
[16] = target: T1, Nuclear factor erythroid 2-related factor 2 (Homo sapiens); experiment: Activation of Nrf2 in normal human lung fibroblasts assessed as induction of HMOX protein expression by measuring HMOX positive cells level at 3 uM incubated for 16 to 18 hrs by immunostaining relative to control DMSO
[17] = target: T1, Nuclear factor erythroid 2-related factor 2 (Homo sapiens); experiment: Activation of Nrf2 in normal human lung fibroblasts assessed as induction of HMOX protein expression by measuring HMOX positive cells level at 0.03 uM incubated for 16 to 18 hrs by immunostaining relative to control DMSO
[18] = target: T1, Nuclear factor erythroid 2-related factor 2 (Homo sapiens); experiment: Activation of Nrf2 in normal human lung fibroblasts assessed as induction of HMOX protein expression at 0.3 uM incubated for 16 to 18 hrs by immunostaining relative to control
[19] = target: T1, Nuclear factor erythroid 2-related factor 2 (Homo sapiens); experiment: Activation of Nrf2 in normal human lung fibroblasts assessed as induction of HMOX protein expression by measuring HMOX positive cells level at 10 uM incubated for 16 to 18 hrs by immunostaining relative to control DMSO
[20] = target: T1, Nuclear factor erythroid 2-related factor 2 (Homo sapiens); experiment: Activation of Nrf2 in normal human lung fibroblasts assessed as induction of HMOX protein expression at 30 uM incubated for 16 to 18 hrs by immunostaining relative to control
[21] = target: T1, Nuclear factor erythroid 2-related factor 2 (Homo sapiens); experiment: Activation of Nrf2 in normal human lung fibroblasts assessed as induction of HMOX protein expression by measuring HMOX positive cells level at 0.1 uM incubated for 16 to 18 hrs by immunostaining relative to control DMSO
[22] = target: T1, Nuclear factor erythroid 2-related factor 2 (Homo sapiens); experiment: Activation of Nrf2 in normal human lung fibroblasts assessed as induction of HMOX protein expression by measuring HMOX positive cells level at 1 uM incubated for 16 to 18 hrs by immunostaining relative to control DMSO

`COC(=O)[C@]12CCC(C)(C)C[C@H]1[C@H]1C(=O)C=C3[C@@]4(C)C=C(C#N)C(=O)C(C)(C)[C@@H]4CC[C@@]3(C)[C@]1(C)CC2` showed a fold change (FC) [1] of 1.31, a fold change (FC) [2] of 19 and a fold change (FC) [3] of 2.53. The fold change (FC) [4] was 12.2, the fold change (FC) [5] was 5 and the fold change (FC) [6] was 8.48. The fold change (FC) [7] was 1.59 and the fold change (FC) [8] was 16.4.
Molecule `COC(=O)/C=C/C(=O)OC` has a fold change (FC) [9] of 4.45, a fold change (FC) [10] of 1.04 and a fold change (FC) [11] of 2.76. The fold change (FC) [12] was 1.39, the fold change (FC) [13] was 1.06 and the Activity [14] was 84.6%. The Activity [15] was 2.47%, the Activity [16] was 41.6% and the Activity [17] was 1.71%. It also gave a fold change (FC) [18] of 1.14, an Activity [19] of 74.3% and a fold change (FC) [20] of 6.19. The Activity [21] was 1.21% and the Activity [22] was 4.38%.
